According to article PMC6437697 (Journal of Medicinal Chemistry, 2019):

Assays:
Assay in all cases: KINOMEscan
Assay type in all cases: binding
Settings in all cases: read-out: % control activity remaining
BMX = target: T1, BMX (Homo sapiens, UniProt P51813)
T1 construct: purchased Eurofins DiscoverX KINOMEscan
T1 sequence (P51813 1-675): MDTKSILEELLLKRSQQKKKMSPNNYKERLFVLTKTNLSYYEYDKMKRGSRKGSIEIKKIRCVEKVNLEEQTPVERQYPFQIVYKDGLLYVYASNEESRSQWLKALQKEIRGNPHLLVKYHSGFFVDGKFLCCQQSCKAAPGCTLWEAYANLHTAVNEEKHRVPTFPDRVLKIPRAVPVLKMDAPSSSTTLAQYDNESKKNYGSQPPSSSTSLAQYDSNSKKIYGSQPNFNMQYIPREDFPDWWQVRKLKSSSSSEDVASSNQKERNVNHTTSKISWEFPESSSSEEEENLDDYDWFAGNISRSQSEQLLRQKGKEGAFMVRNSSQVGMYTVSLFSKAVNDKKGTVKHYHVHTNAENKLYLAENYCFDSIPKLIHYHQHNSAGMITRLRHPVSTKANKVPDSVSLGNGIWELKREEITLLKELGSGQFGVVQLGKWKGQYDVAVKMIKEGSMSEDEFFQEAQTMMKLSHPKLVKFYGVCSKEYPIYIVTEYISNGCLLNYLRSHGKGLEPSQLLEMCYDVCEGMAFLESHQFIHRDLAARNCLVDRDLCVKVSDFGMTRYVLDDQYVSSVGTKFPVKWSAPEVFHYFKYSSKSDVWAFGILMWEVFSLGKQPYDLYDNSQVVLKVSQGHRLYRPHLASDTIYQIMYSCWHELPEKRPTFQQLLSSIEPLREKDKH

IGF1R = target: T2, IGF1R (Homo sapiens, UniProt P08069)
T2 construct: purchased Eurofins DiscoverX KINOMEscan

GRK7 = target: T3, GRK7 (Homo sapiens, UniProt Q8WTQ7)
T3 construct: purchased Eurofins DiscoverX KINOMEscan
T3 sequence (Q8WTQ7 1-553): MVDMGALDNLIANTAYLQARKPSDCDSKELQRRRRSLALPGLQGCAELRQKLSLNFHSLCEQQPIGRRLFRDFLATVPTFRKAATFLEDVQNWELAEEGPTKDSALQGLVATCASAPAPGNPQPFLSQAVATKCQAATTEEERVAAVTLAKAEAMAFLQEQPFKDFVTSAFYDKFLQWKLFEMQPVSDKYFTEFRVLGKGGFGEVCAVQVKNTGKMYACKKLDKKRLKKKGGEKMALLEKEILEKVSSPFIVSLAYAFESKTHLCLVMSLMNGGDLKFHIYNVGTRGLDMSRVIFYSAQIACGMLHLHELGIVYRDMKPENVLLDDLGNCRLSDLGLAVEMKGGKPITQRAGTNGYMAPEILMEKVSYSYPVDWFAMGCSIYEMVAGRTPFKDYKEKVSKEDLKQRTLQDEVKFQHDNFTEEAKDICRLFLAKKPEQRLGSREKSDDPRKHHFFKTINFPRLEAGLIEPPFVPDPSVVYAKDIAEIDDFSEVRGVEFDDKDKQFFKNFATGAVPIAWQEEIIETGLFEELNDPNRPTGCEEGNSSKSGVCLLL

PRKD2 = target: T4, PRKD2 (Homo sapiens, UniProt Q9BZL6)
T4 construct: purchased Eurofins DiscoverX KINOMEscan
T4 sequence (Q9BZL6 1-878): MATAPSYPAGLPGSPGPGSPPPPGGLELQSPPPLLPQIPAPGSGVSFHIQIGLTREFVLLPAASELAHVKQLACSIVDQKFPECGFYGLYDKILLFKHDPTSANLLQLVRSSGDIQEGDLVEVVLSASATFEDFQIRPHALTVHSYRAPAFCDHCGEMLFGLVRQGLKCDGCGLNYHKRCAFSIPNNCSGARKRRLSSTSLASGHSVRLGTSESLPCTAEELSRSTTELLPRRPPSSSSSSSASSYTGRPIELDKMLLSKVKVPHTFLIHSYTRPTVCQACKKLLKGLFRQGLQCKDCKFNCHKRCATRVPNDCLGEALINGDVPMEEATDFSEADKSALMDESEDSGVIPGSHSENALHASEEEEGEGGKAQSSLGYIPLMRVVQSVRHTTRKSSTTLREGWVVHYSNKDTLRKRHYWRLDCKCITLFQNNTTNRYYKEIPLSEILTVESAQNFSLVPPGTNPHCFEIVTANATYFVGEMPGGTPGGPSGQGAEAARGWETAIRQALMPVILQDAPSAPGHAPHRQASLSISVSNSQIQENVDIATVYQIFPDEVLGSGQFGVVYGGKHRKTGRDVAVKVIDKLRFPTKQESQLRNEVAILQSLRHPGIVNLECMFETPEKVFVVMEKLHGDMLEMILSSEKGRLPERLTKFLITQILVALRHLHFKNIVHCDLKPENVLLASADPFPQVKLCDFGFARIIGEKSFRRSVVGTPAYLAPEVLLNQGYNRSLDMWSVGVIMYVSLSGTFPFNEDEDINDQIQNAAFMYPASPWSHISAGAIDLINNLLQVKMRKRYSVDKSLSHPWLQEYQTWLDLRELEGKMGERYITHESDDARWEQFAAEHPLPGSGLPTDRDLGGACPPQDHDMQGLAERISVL

CDK4-cyclinD3 = target: T5, CDK4-cyclinD3 (Homo sapiens, UniProt P11802)
T5 construct: purchased Eurofins DiscoverX KINOMEscan

[1] = target: T6, TYK2(JH1domain-catalytic) (Homo sapiens, UniProt P29597)
T6 construct: TYK2(JH1domain-catalytic); purchased Eurofins DiscoverX KINOMEscan
T6 sequence (P29597 871-1187 limits assumed): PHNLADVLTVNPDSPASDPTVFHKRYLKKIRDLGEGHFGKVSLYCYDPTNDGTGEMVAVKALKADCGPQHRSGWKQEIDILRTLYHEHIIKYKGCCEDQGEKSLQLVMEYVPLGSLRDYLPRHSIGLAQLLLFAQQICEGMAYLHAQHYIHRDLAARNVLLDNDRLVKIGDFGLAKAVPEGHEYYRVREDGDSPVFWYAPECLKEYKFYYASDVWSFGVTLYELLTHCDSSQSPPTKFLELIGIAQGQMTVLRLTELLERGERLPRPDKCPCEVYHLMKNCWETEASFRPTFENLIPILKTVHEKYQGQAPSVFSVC

TGFBR2 = target: T7, TGFBR2 (Homo sapiens, UniProt P37173)
T7 construct: purchased Eurofins DiscoverX KINOMEscan

AKT3 = target: T8, AKT3 (Homo sapiens, UniProt Q9Y243)
T8 construct: purchased Eurofins DiscoverX KINOMEscan
T8 sequence (Q9Y243 whole entry): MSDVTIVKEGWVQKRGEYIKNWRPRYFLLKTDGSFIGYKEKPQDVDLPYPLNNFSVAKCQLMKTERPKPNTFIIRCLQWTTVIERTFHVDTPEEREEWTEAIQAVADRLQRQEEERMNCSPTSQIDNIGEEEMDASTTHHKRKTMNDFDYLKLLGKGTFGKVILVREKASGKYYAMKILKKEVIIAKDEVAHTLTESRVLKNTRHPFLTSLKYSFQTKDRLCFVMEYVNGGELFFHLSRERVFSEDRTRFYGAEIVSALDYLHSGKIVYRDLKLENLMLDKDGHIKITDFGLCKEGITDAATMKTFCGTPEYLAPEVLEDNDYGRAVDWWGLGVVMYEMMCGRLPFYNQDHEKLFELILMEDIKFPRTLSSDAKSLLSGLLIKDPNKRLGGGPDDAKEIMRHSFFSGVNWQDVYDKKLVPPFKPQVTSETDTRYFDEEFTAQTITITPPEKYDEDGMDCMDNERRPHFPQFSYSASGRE

T7 sequence (P37173 23-567): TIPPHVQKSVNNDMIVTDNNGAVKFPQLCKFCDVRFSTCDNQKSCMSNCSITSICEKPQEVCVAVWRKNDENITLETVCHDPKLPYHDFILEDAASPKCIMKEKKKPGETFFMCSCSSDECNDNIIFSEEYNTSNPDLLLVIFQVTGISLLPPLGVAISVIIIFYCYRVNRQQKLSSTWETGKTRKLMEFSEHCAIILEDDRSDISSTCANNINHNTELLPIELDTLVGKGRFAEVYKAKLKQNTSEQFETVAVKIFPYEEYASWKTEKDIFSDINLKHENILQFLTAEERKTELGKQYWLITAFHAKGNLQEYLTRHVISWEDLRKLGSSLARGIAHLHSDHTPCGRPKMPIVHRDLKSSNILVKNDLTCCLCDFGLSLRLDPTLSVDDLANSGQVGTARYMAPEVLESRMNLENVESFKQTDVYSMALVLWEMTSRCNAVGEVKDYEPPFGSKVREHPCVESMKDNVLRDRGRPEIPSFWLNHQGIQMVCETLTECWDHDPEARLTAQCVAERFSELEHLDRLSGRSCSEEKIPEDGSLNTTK
T2 sequence (P08069 31-1367 limits assumed): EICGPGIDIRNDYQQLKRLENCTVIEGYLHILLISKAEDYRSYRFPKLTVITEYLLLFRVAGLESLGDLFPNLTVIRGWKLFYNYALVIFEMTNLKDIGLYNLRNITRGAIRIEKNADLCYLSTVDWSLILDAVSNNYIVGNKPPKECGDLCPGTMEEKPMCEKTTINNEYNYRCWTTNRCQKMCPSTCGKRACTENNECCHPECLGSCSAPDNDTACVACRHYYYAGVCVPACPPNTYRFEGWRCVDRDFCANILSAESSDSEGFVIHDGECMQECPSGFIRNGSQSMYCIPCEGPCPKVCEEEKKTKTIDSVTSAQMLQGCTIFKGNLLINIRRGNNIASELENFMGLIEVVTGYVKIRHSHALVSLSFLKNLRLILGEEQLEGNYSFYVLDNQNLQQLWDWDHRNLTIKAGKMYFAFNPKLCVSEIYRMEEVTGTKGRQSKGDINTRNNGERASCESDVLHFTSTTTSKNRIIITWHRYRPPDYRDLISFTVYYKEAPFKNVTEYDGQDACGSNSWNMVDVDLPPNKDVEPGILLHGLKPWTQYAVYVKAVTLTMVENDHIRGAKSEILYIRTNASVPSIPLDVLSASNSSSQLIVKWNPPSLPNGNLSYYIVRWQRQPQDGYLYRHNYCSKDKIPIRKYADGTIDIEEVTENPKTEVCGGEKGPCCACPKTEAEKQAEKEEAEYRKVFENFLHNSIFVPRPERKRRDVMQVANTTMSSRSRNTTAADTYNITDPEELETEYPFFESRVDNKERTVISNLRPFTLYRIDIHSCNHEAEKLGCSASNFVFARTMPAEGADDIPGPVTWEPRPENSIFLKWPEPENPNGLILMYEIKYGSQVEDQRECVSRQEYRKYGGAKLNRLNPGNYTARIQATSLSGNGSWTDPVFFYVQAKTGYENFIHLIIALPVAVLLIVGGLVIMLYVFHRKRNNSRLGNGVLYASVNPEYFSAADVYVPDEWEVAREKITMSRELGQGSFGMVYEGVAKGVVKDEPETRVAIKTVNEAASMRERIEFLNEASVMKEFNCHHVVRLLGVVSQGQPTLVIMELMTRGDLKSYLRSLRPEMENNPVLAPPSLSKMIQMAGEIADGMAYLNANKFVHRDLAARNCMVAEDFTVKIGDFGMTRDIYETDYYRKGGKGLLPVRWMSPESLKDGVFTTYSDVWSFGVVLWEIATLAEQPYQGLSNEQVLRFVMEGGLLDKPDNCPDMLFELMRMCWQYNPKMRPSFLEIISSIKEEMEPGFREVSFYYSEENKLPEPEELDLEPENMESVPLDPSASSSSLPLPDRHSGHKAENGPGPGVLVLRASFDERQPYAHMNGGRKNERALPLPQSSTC
T5 sequence (P11802 whole entry): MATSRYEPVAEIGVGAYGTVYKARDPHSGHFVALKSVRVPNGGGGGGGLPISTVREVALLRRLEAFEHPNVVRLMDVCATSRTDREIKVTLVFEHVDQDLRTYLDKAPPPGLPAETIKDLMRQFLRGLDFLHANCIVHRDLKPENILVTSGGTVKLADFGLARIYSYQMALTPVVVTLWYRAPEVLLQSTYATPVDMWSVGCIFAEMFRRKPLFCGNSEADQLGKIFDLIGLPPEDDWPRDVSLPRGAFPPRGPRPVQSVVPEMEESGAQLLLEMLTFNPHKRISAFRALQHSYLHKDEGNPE
T5 sequence (P30281 whole entry partner): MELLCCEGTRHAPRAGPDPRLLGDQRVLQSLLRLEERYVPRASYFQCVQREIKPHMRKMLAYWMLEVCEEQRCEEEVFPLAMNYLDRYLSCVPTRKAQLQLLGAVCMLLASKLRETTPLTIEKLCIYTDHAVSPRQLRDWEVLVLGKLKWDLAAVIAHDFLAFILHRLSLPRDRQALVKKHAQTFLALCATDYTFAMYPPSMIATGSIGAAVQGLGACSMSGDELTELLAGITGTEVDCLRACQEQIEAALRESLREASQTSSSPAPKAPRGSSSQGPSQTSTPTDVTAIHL

| Structure (SMILES) | remaining binding at 1 µM (BMX) | remaining binding at 1 µM (IGF1R) | remaining binding at 1 µM (GRK7) | remaining binding at 1 µM (PRKD2) | remaining binding at 1 µM (CDK4-cyclinD3) | remaining binding at 1 µM [1] | remaining binding at 1 µM (TGFBR2) | remaining binding at 1 µM (AKT3) |
| --- | --- | --- | --- | --- | --- | --- | --- | --- |
| CN1CCC(CNc2cc(Cl)nn3c(-c4cc5nc(Nc6ccccc6)[nH]c5cc4F)cnc23)CC1 [compound 31, 6-Chloro-3-(6-fluoro-2-(phenylamino)-1H-benzo[d]imidazol-5-yl)-N-((1-methylpiperidin-4-yl)methyl)imidazo[1,2-b]pyridazin-8-amine] | 100% | 95% | 77% | 93% | 97% | 74% | 100% | 90% |
| O=C(CN1CCOCC1)N[C@H]1CC[C@H](Nc2cc(Cl)nn3c(-c4ccc5[nH]ncc5c4)cnc23)CC1 [compound 26] | 92% | 100% | 63% | 100% | 100% | 100% | 100% | 100% |
| Clc1cc(NCC2CC2)c2ncc(-c3ccc4[nH]ncc4c3)n2n1 [compound 2, 6-Chloro-N-(cyclopropylmethyl)-3-(1H-indazol-5-yl)imidazo[1,2-b]pyridazin-8-amine] | 96% | 100% | 97% | 100% | 78% | 87% | 100% | 100% |
